From patent US20260216197A1, “WRN HELICASE INHIBITOR” (SUZHOU PUHE BIOPHARMA CO., LTD., priority 2022, published 2026) come the findings set out here.

Structures are written as SMILES. Where two headings read alike, the source gives them in different places.

For data set [1], the target named is WRN helicase (Homo sapiens, UniProt Q14191). In words: WRN helicase hydrolysis/unwinding of double-stranded DNA (fluorescence). In kind it is biochemical. As to the method:
The activity of the molecules of the present disclosure on the hydrolysis of double-stranded PP-6TR DNA by WRN helicase was tested.
The working solution and buffer were prepared, and the test compound was dissolved in DMSO followed by a4-fold dilution (with a final concentration of 10 μM as the starting concentration). Then, 0.2 μL of the test compound solution was added to a384-well plate, followed by 10 μL of (2×) WRN enzyme solution. The mixture was incubated in the dark for 30 minutes, after which 10 μL of substrate detection solution containing double-stranded DNA was added to initiate the reaction (DNA length: 19 bp, labeled with TAMRA at the 3′ end and BHQ2 at the 5′ end). The mixture was incubated at room temperature for 60 minutes. The inhibitory activity (IC50) against the WRN enzyme was calculated based on the fluorescence change (Ex530/Em590) between the blank group (DMSO) and the compound group.

Data set [2] deals with MSI-H colorectal cancer SW48 cell line. In words: 2D anti-proliferative activity, MSI-H SW48 cells (CTG, 5 days). In kind it is cell-based. To be noted: for IC50: 5 days; for inhibition at 38.15 pM: 0.038146973 nM; for inhibition at 0.000152588 µM: 0.152587891 nM; for inhibition at 0.000610352 µM: 0.610351563 nM; for inhibition at 0.00244141 µM: 2.44140625 nM; for inhibition at 0.00976562 µM: 9.765625 nM; for inhibition at 0.0390625 µM: 39.0625 nM; for inhibition at 0.15625 µM: 156.25 nM; for inhibition at 0.625 µM: 625 nM; for inhibition at […]: 2500 nM; for inhibition at 10 µM: 10000 nM. As for the experimental part:
The molecules of the present disclosure were tested for their anti-proliferative activity against MSI-H tumor cells.
The proliferation of tumor cells with microsatellite instability MSI-H is sensitive to WRN inhibitors, while the proliferation of microsatellite stable (MSS) tumor cells is insensitive to WRN inhibitors. By testing the activities of the two, it is shown that the molecules of the present disclosure have an inhibitory and synthetic lethal effect on WRN at the cellular level.
(§1) The MSI-unstable SW48 colorectal cancer cells were cultured in RPMI 1640 medium containing 10% FBS and 1% penicillin-streptomycin in a 37° C., 5% CO2 constant temperature incubator. A 40 μL cell suspension was added to each well of a 384-well microplate. Using Echo, 40 nL of compounds at different concentrations was dispensed into each well, followed by incubation in a 37° C., 5% CO2 constant temperature incubator for 5 days. Then, 40 μL of CTG solution (Promega, Cat No. G7573) was added to each well, and the plate was incubated in the dark in a 37° C., 5% CO2 constant temperature incubator for 30 minutes. Luminescence was measured using an Envision multi-function microplate reader (Perkin Elmer, Model: Envision 2104). The luminescent signal was proportional to the amount of ATP in the system, and the amount of ATP directly represented the number of living cells in the system.

Data set [3] can be described thus: Liver microsome stability test. The settings on record: human liver microsomes 0.5 mg/mL, compound 1 μM, NADPH 1 mM, 60 minutes; for microsomal CLint at 1 μM: read-out: Human Clint μL/min/mg Protein. Format: in vitro ADME. As for the experimental part: The liver microsome stability test of the compounds is as follows:
The compounds of the present disclosure were subjected to a liver microsome stability test. The compounds to be tested were co-incubated with liver microsomes of different species with or without the addition of NADPH. The final concentration of the compounds to be tested in the test system was 1 μM, the final concentration of NADPH was 1 mM, and the final concentration of liver microsomes was 0.5 mg/mL.
For orientation: Liver microsomes are vesicles of endoplasmic reticulum, rich in cytochrome P450 enzymes.

In data set [4] the test system is MSS colorectal cancer HT-29 cell line. In words: 2D anti-proliferative activity, MSS HT-29 cells (CTG, 5 days). Format: cell-based. As to the method:
The molecules of the present disclosure were tested for their anti-proliferative activity against MSS tumor cells.
as §1, with “MSS HT-29” for “MSI-unstable SW48”, “McCoy's 5A” for “RPMI 1640”

The nature of data set [5]: Pharmacokinetic evaluation in mice. In kind it is in vivo, CD1 female mice. To be noted: for AUC(0-t): read-out: AUC0-24. As for the experimental part:
CD1 female mice were used as test animals and the drug was administered orally/intravenously (oral dosage: 10 mg/kg, intravenous dosage: 2 mg/kg).
Assay protocol: The oral group consisted of 3 mice per group (vehicle: 10% Hβ-CD-pH7.4), and the intravenous group consisted of 3 mice per group. […] The blood concentrations in plasma after oral and intravenous administration of mice were determined by LC/MS/MS, respectively.

[6] abbreviates: female, CD1, mouse, plasma, IV 2 mg/kg.
[7] abbreviates: female, CD1, mouse, plasma, PO 10 mg/kg.
The mark [8] stands for this setting: Homo sapiens, read-out: Average value/ Inhibition rate.
Setting [9] is: Homo sapiens, read-out: Test 1/ Inhibition rate.
Setting [10] is: Homo sapiens, read-out: Test 2/ Inhibition rate.

Chain of WRN helicase (Q14191 whole entry): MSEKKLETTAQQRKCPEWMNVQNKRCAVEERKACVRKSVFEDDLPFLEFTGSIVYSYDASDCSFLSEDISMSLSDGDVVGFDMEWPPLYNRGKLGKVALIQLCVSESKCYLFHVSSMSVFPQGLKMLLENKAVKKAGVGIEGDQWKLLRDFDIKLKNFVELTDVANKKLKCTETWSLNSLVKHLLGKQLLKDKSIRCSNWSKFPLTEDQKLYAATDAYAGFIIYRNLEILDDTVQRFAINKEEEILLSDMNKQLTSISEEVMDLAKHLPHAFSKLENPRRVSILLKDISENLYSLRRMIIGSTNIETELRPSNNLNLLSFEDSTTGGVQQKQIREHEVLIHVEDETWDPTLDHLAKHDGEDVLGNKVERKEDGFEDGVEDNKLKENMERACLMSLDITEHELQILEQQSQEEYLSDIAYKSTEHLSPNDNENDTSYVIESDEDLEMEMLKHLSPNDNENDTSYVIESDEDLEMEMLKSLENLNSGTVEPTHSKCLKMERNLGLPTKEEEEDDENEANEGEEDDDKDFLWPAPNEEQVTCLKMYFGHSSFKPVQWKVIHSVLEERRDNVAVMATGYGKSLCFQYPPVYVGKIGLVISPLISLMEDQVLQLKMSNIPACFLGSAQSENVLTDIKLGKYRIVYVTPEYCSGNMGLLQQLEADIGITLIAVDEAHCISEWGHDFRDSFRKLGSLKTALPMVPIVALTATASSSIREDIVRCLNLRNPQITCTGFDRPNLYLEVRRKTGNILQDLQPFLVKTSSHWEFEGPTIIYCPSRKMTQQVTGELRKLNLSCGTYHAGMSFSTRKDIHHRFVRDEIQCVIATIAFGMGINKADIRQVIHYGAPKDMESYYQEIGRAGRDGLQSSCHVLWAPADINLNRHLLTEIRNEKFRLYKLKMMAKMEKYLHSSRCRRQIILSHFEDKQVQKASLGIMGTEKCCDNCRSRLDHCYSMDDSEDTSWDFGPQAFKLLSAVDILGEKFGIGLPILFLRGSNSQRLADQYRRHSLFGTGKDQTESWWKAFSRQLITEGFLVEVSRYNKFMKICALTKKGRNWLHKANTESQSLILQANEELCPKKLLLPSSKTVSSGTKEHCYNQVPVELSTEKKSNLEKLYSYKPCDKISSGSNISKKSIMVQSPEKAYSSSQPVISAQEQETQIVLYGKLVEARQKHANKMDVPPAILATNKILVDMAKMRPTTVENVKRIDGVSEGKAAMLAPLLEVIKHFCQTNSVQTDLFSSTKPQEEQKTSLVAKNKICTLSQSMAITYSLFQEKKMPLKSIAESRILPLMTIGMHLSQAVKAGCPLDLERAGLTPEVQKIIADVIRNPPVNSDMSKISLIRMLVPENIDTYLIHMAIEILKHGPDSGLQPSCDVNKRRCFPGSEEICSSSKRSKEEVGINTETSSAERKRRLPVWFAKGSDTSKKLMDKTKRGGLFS

As to `CCc1c(N2CCN(C(=O)c3ncnc(C)c3O)CC2)c(=O)n2nc(C3=CCOCC3)nc2n1CC(=O)Nc1ccc(C(F)(F)F)c2c1OCC2` [Compound H3], the IC50 (usually the concentration needed to halve the response being measured) in data set [1] was 1.6 nM; in data set [2], 216 nM; in data set [4], > 10000 nM. Moreover, the “Human Clint μL/min/mg Protein” value in data set [3] turned out to be 2.2 μL/min/mg Protein. Moreover, the “Human Clint/(mL/min/kg)” value in data set [3] was 2.7 mL/min/kg.
As to `CCc1c(N2CCN(C(=O)c3nccc(Cl)c3O)CC2)c(=O)n2nc(C3=CCOCC3)nc2n1CC(=O)Nc1ccc(C(F)(F)F)c2ccsc12` [Compound H19], the IC50 in data set [1] is 0.9 nM; in data set [2] (Homo sapiens, 120 h), 125 nM; in data set [4] (Homo sapiens, 120 h), > 10000 nM. For the same compound, the CLint scaled – broadly, a measure of how fast metabolising enzymes remove a compound, apart from limits set by blood flow – at 1 μM in data set [3] worked out at 0.73 mL/min/kg. In addition, the microsomal CLint at 1 μM in data set [3] was 0.58 µL/min/mg.
`CCc1c(N2CCN(C(=O)c3ncnc(C)c3O)CC2)c(=O)n2nc(C3=CCOCC3)nc2n1CC(=O)Nc1ccc(C(F)(F)F)c2ncsc12` [Compound H14]: the IC50 was 3.9 nM in data set [1]; 2200 nM in data set [2] (Homo sapiens, 120 h); > 10000 nM in data set [4] (Homo sapiens, 120 h).
Consider `CCc1c(N2CCN(C(=O)c3ncnc(C)c3O)CC2)c(=O)n2nc(C3=CCOCC3)nc2n1CC(=O)Nc1ccc(C(F)(F)F)cc1SC` [Compound H4], for which the IC50 in data set [1] was 71 nM; in data set [2] (Homo sapiens, 120 h) it was 2560 nM; in data set [4] (Homo sapiens, 120 h), > 10000 nM.
Consider `CCc1c(N2CCN(C(=O)c3ncnc(C)c3O)CC2)c(=O)n2nc(C3=CCOCC3)nc2n1CC(=O)Nc1ccc(C(F)(F)F)c2sccc12` [Compound H13], for which the F in data set [5] (PO 10 mg/kg vs IV 2 mg/kg) was 24%. In addition, in data set [5] (setting [6]), the clearance (commonly a measure of how efficiently the substance is removed, as volume per time) was found to be 42.9 mL/min/kg and the AUC(0-t) was found to be 722 ng·h/mL. In data set [5] (female, CD1, mouse, plasma, IV 2 mg/kg, read-out: C0), the C0 amounted to 2530 ng/mL. For the same compound, in data set [5] (setting [7]), the half-life (as a rule, how long it takes for the measured level to halve) is 66 min and the AUC(0-t) came out at 943 ng·h/mL. Further, in data set [5] (female, CD1, mouse, plasma, PO 10 mg/kg, read-out: Cmax), the Cmax (as a rule, the peak of the concentration-time curve) was determined as 551 ng/mL. Also, in data set [5] (female, CD1, mouse, plasma, PO 10 mg/kg, read-out: Tmax), the time to peak (Tmax) (commonly the time at which the peak concentration occurs) amounted to 30 min. For the same compound, in data set [1], 1.2 nM corresponded to half-maximal inhibition (IC50). Besides, the “inhibitory activity on SW48 cells” value in data set [2] (39 nM) is recorded as “high inhibitory activity”. In data set [2] (setting [8]), the inhibition at 38.15 pM is -1.31%, the inhibition at 0.000152588 µM was 0.853%, the inhibition at 0.000610352 µM is -1.43% and the inhibition at 0.00244141 µM is -3.17%. Also, in data set [2] (setting [8]), the inhibition at 0.00976562 µM turned out to be 0.332%, the inhibition at 0.0390625 µM was 76.4%, the inhibition at 0.15625 µM was 97.6% and the inhibition at 0.625 µM came out at 99.4%. For the same compound, in data set [2] (setting [8]), the inhibition at […] was determined as 99.6% and the inhibition at 10 µM was determined as 101%. In data set [2] (setting [9]), the inhibition at 38.15 pM is -1.51%, the inhibition at 0.000152588 µM amounted to 2.48%, the inhibition at 0.000610352 µM is -3.56% and the inhibition at 0.00244141 µM was 0.0291%. Also, in data set [2] (setting [9]), the inhibition at 0.00976562 µM is -3.9%, the inhibition at 0.0390625 µM came out at 76.2%, the inhibition at 0.15625 µM amounted to 98.6% and the inhibition at 0.625 µM was found to be 99.6%. In addition, in data set [2] (setting [9]), the inhibition at […] stood at 99.7% and the inhibition at 10 µM is 103%. In data set [2] (setting [10]), the inhibition at 38.15 pM is -1.1%, the inhibition at 0.000152588 µM was -0.775%, the inhibition at 0.000610352 µM is 0.706% and the inhibition at 0.00244141 µM was -6.36%. Also, in data set [2] (setting [10]), the inhibition at 0.00976562 µM came to 4.57%, the inhibition at 0.0390625 µM came to 76.6%, the inhibition at 0.15625 µM was 96.6% and the inhibition at 0.625 µM was 99.2%. Also, in data set [2] (setting [10]), the inhibition at […] is 99.5% and the inhibition at 10 µM was 100%. Further, in data set [2] (Homo sapiens, 120 h), inhibition was half-maximal at 28 nM (IC50). In data set [3], the CLint scaled at 1 μM is 7.9 mL/min/kg and the microsomal CLint at 1 μM came to 6.3 µL/min/mg. For the same compound, the IC50 in data set [4] (Homo sapiens, 120 h) is > 10000 nM.
With `CCc1c(N2CCN(C(=O)c3ncccc3O)CC2)c(=O)n2nc(C3=CCC(OC)CC3)nc2n1CC(=O)Nc1ccc(C(F)(F)F)c2ccsc12` (stereo not drawn) [Compound H8], the IC50 in data set [1] came to 1.3 nM; in data set [2] (Homo sapiens, 120 h) it was 124 nM; in data set [4] (Homo sapiens, 120 h), 1480 nM.
With `CCc1c(N2CCN(C(=O)c3nccc(F)c3O)CC2)c(=O)n2nc(C3=CCOCC3)nc2n1CC(=O)Nc1ccc(C(F)(F)F)c2ccsc12` [Compound H20], the IC50 in data set [1] was 1 nM; in data set [2] (Homo sapiens, 120 h), 75 nM; in data set [4] (Homo sapiens, 120 h), > 10000 nM. Moreover, in data set [3], the CLint scaled at 1 μM is 25.9 mL/min/kg. For the same compound, the microsomal CLint at 1 μM in data set [3] stood at 20.6 µL/min/mg.
In the case of `CCc1c(N2CCN(C(=O)c3ncccc3O)CC2)c(=O)n2nc(C3=CCOCC3)nc2n1CC(=O)Nc1ccc(C(F)(F)F)c2ccsc12` [Compound H2], the IC50 in data set [1] stood at 1.4 nM; in data set [2] (Homo sapiens, 120 h), 131 nM; in data set [4] (Homo sapiens, 120 h), 3500 nM. Further, the CLint scaled at 1 μM in data set [3] amounted to 19.7 mL/min/kg. Besides, the microsomal CLint at 1 μM in data set [3] turned out to be 15.7 µL/min/mg.
With `CCc1c(N2CCN(C(=O)c3ncccc3O)CC2)c(=O)n2nc(N3CCOCC3)nc2n1CC(=O)Nc1ccc(C(F)(F)F)c2ccsc12` [Compound H9], the half-inhibitory concentration (IC50) in data set [1] is 1.7 nM; in data set [2] (Homo sapiens, 120 h) it was 193 nM; in data set [4] (Homo sapiens, 120 h), > 10000 nM. The same compound displayed a CLint scaled at 1 μM in data set [3] of 13 mL/min/kg. In addition, the microsomal CLint at 1 μM in data set [3] is 10.3 µL/min/mg.
With `CCc1c(N2CCN(C(=O)c3ncccc3O)CC2)c(=O)n2nc(N3CCC[C@H](F)C3)nc2n1CC(=O)Nc1ccc(C(F)(F)F)c2ccsc12` [Compound H11], the half-maximal inhibitory concentration (IC50) worked out at 2.4 nM in data set [1]; 1140 nM in data set [2] (Homo sapiens, 120 h); 7410 nM in data set [4] (Homo sapiens, 120 h).
